Like-named read-outs stand apart in the source and are kept apart here. No end group written: not given here.
What was measured:
[1] = solution NMR, S.D. in next row
Text: Source data are provided as a Source Data file.
(1 picture or pasted object on this page, not shown here)

[2] = Turbidity assay of WGR-1 (10 mM) in citrate, Tris and ammonium bicarbonate buffer; format: physicochemical; conditions: 10 mM peptide, mean of n=3
Method: Supplementary Figure 2. Turbidity assay of WGR-1 (10 mM) in citrate buffer (pH 6-7), Tris buffer (pH 6-10) and ammonium bicarbonate buffer (ABC, pH 9-10). Turbidity was monitored at λ=500 nm.
Source data are provided as a Source Data file. […]
iii) Performed solution NMR analysis to determine the pKa of the terminal amine for each […]
The results of each analysis are detailed below: i) To analyze the effect of the ions in each of the buffers on peptide LLPS, we performed turbidity assay of 10 mM WGR-1 using citrate buffer at pH 6-7, tris buffer at pH 6-10 and ammonium carbonate buffer at pH 9-10, with 200 mM NaCl. For citrate buffer, we measured sample turbidity at pH 6, the optimal value for this buffer, and in addition at pH 7, to compare the effect of citrate and tris on LLPS. Similarly, we analyzed the turbidity in ammonium bicarbonate buffer at pH 9 in additional to pH 10, to compare the effect of tris and ammonium bicarbonate on LLPS.
Higher turbidity is observed at pH 7 with citrate compared to tris and with ammonium bicarbonate at pH 9-10 compared to tris. […]
bicarbonate facilitate LLPS, presumably by reducing the electrostatic repulsion between […]
citrate and -1/-2 for ammonium bicarbonate). […]
In light of these findings and the obvious ion effect, we decided to present the new phase diagrams in tris in main text Figure 2b and the phase diagrams with the different buffers in Supplementary Fig. 1. The text was revised accordingly (see revised manuscript, revised text is highlighted in red). In addition, the turbidity assay of the different buffers was added to […]
Supplementary Fig. 2. […]

[3] = format: physicochemical; conditions: for Apparent diffusion coefficient D, condensed phase (FRAP) / t1/2 of the FRAP recovery: 20 mM peptide, 0.5% FITC-labeled, tris pH 8, 0.2 M NaCl
Method: Next, we studied whether the peptide sequence affects the material properties of the resulting liquid droplets. For this, we performed FRAP analysis using laser scanning confocal microscopy of 0.5% FITC-labeled peptides. […] The apparent diffusion coefficient for each peptide was calculated as1 Dapp=r^2/t where t is the recovery time. The calculated apparent diffusion coefficients of the peptides were in the 1.7–5.5*10^−14 m^2 s^−1 range (Supplementary Table 1).
Fig. 3 Strength of intermolecular interactions affects peptide droplet dynamics. a–c FRAP analysis of WGR-1, WGR-3, WGR-4, and WGR-5, performed using laser scanning confocal microscopy at 20 mM in Tris buffer at pH 8 with 0.2 M NaCl using 0.5% FITC-labeled peptides. a Representative confocal microscopy images of FRAP for individual droplets. Scale bars = 5 μm. FRAP recovery plots (b), apparent diffusion coefficient (c), and t1/2 of the recovery (d). Data are presented as mean values +/− SD, n = 5 (WGR-1), 4 (WGR-3, WGR-4), and 5 (WGR-5). Source data are provided as a Source Data file.
FRAP experiments were performed by a Zeiss Zen 900 confocal microscope with ×20/0.8 NA Plan- Apochromat air objective. For each of the peptides, out of a total peptide concentration of 20 mM we used 0.5% FITC-labeled peptide, in tris buffer pH 8 with 0.2 M NaCl. A circular area with radius of 2.5 μm was bleached with a 488 nm laser 100% intensity at 10 iterations; subsequent recovery of the bleached area was recorded with a 488 nm laser. Monitoring of fluorescence recovery in the condensates was analyzed using Zen Blue 3.2 software (Zeiss). Photobleaching correction and recovery time were calculated using OriginLab 9.95. The final FRAP recovery curve is the average of recovery curves collected from n = 4–6 separate droplets.

[4] = Encapsulation efficiency of peptide droplets, rhodamine B payload; format: physicochemical; conditions: C initial 10 µM, 20 mM peptide; for %EE: 20 mM Tris + 0.2 M NaCl pH 8, 15,000 g 10 min, supernatant absorbance 555 nm
Text: Next, we studied how peptide composition affects the encapsulation efficiency of the droplets by using GFP, rhodamine B, and fluorescein as fluorescent payload model systems (Fig. 4). We analyzed the encapsulation efficiency of the fluorescent payloads by using both confocal microscopy and absorbance measurements of the payloads in the dilute vs. the condensed phase (Fig. 4a–c). […] WGR-1 has the highest EE of fluorescein. In addition to π-π interactions, WGR-1 might form hydrogen bonding with the hydroxyl groups or electrostatic interactions with the deprotonated carboxylic acid of the dye.
Stock solutions (1 mM) of the fluorescein and rhodamine B dye molecules were prepared in 20 mM Tris buffer. Coacervate solutions of 20 mM peptide were prepared in 20 mM Tris + 0.2 M NaCl at pH 8. From these, a volume of 148.5 µl was mixed with 1.5 µl of dye solution in a 1.5 ml Eppendorf tube and pipetted. After 10 min the samples were centrifuged at 15,000 × g for 10 min. A volume of 120 μl from the supernatant was collected and vortexed and then the absorbance of 35 μl triplicates was measured (at λ = 490 nm for fluorescein and λ = 555 nm for RhB) in a 384 well black plate by Biotek H1 synergy plate reader (purchased from Lumitron, Israel). For GFP, a 7.5 µl of 20 mM Tris buffer to a 7.5 μl GFP aliquot from the purchased stock solution. The 15 µl of GFP solution was added to 135 µl of peptide solution and was mixed in a 1.5 ml Eppendorf tube and pipetted. The concentration of GFP at the supernatant was measured via fluorescence. All experiments were performed in triplicate. The concentration of the supernatant solutions determinate by calibration curves. Imaging was made to 30 μl of uncentrifuged samples. Efficiency of encapsulation (%EE) was calculated using Eq. 2. 2 %EE=CT−Csup/CT

[5] = FRAP of WGR-1 droplets, replicate 1

## WGRGRGRGWPGVGY [WGR-1]
[1]
  D dilute phase (NMR), apparent diffusion coefficient: 1.91E-10 m^2/sec
other
  differential NaCl-induced change (20 vs 5 mM), average: 3.5 Hz
[2]; AC (ammonium bicarbonate) buffer, pH 9, 200 mM NaCl
  Turbidity as asorbance at 500 nm: 2.028
[2]; AC (ammonium bicarbonate) buffer, pH 10, 200 mM NaCl
  Turbidity as asorbance at 500 nm: 2.068
[2]; Tris buffer, pH 6, 200 mM NaCl
  Turbidity as asorbance at 500 nm: 0.007333
[2]; Tris buffer, pH 7, 200 mM NaCl
  Turbidity as asorbance at 500 nm: 0.01967
[2]; Tris buffer, pH 8, 200 mM NaCl
  Turbidity as asorbance at 500 nm: 0.2073
[2]; Tris buffer, pH 9, 200 mM NaCl
  Turbidity as asorbance at 500 nm: 1.416
[2]; Tris buffer, pH 10, 200 mM NaCl
  Turbidity as asorbance at 500 nm: 1.71
[2]; citrate buffer, pH 6, 200 mM NaCl
  Turbidity as asorbance at 500 nm: 0.02367
[2]; citrate buffer, pH 7, 200 mM NaCl
  Turbidity as asorbance at 500 nm: 0.974
[3]; Dapp=r^2/t, mean of n=4-5 droplets
  Apparent diffusion coefficient D, condensed phase (FRAP): 4.58E-14 m^2 s^-1
[3]; bleached radius 2.5 μm, droplet 1
  Apparent diffusion coefficient D, condensed phase (FRAP): 4.047e-14 m^2 s^-1
[3]; droplet 1
  t1/2 of the FRAP recovery: 37.1535
[3]; droplet 2
  t1/2 of the FRAP recovery: 29.5706
[3]; droplet 3
  t1/2 of the FRAP recovery: 25.8937
[3]; droplet 4
  t1/2 of the FRAP recovery: 27.3852
[3]; droplet 5
  t1/2 of the FRAP recovery: 32.7563
[3]; FRAP of WGR-1 droplets, from fit, mean of 5 droplets (stdev 4.50361)
  x=t at y=0.5a (t1/2 of FRAP recovery): 30.5519 s
[3]; FRAP of WGR-1 droplets, from fit, mean of 5 droplets (stdev 17.8362)
  x=t at y=0.95a (time to 95% of plateau recovery): 138.34 s
[3]; FRAP of WGR-1 droplets, from fit, replicate 1
  x=t at y=0.5a (t1/2 of FRAP recovery): 37.1535 s
[3]; FRAP of WGR-1 droplets, from fit, replicate 2
  x=t at y=0.5a (t1/2 of FRAP recovery): 29.5706 s
[3]; FRAP of WGR-1 droplets, from fit, replicate 3
  x=t at y=0.5a (t1/2 of FRAP recovery): 25.8937 s
[3]; FRAP of WGR-1 droplets, from fit, replicate 4
  x=t at y=0.5a (t1/2 of FRAP recovery): 27.3852 s
[3]; FRAP of WGR-1 droplets, from fit, replicate 5
  x=t at y=0.5a (t1/2 of FRAP recovery): 32.7563 s
[3]; FRAP of WGR-1 droplets, normalized intensity fitted with parameters a, b, c, mean of 5 droplets (stdev 7.03086)
  %recovery (mean of fitted plateau a of the FRAP recovery curves): 78.6308%
[3]; FRAP of WGR-1 droplets, average of 5 droplets (stdev 6.05E-15)
  D (apparent diffusion coefficient from FRAP), average: 4.58E-14 m^2 s^-1
[3]; [5]
  D (apparent diffusion coefficient from FRAP): 4.05E-14 m^2 s^-1
  a (fitted plateau of normalized FRAP recovery): 68.4582
[3]; condensed phase, FRAP, mean, S.D. in next row
  D condensed phase (FRAP), apparent diffusion coefficient: 4.52E-14 m^2/sec
[4]; replicate 1, given as fraction
  %EE: 0.9106
[4]; replicate 2, given as fraction
  %EE: 0.9029
[4]; replicate 3, given as fraction
  %EE: 0.8168
[4]; 20 mM Tris + 0.2 M NaCl pH 8, supernatant absorbance 555 nm, mean of n=3, in percent
  Encapsulation efficiency (EE): 87.6774%
